Reference: US20040102469A1, “Method for reducing the mortality rate” (Boehringer Ingelheim Pharma GmbH & Co. KG, priority 2002, published 2004)

Columns and labels:
[1] = five-year study; cited from earlier work
[2] = system: people with lung diseases, especially COPD; assay: mortality from respiratory disease in people with lung diseases regularly self-administering tiotropium through the HANDIHALER inhalation device; type: in vivo; details: regular self-administration by inhalation via HANDIHALER; compared with a population with similar characteristics not treated with tiotropium
Source text: This is evidence by the number of people with lung diseases, especially COPD, who die from respiratory disease in a given prolonged period of time when regularly self-administering tiotropium through the HANDIHALER® inhalation device; the comparison being a population with similar characteristics not treated with tiotropium.

## CC(C)[N+]1(C)[C@@H]2CC[C@H]1CC(OC(=O)C(CO)c1ccccc1)C2.[Br-] (some centres unmarked) [ipratropium bromide]
[1]
  influence on mortality: did not show any influence on mortality

## C[N+]1(C)C2C[C@H](OC(=O)C(O)(c3cccs3)c3cccs3)CC1[C@H]1OC21 (stereo partly drawn) [tiotropium, (1α,2β,4β,5α,7β)-7-[(hydroxydi-2-thienylacetyl)oxy]-9,9-dimethyl-3-oxa-9-azoniatricyclo[3.3.1.0^2,4]nonane bromide]
[2]
  reduction of the mortality rate (number of people who die from respiratory disease in a given prolonged period of time): suitable in the reduction of the mortality rate
